Data from patent US20150265680A1, “THERAPEUTIC AGENT FOR AMYOTROPHIC LATERAL SCLEROSIS” (DAIICHI SANKYO COMPANY, LIMITED, priority 2012, published 2015).
Marks after values point to notes of the source that are not given here. Where a SMILES comes first, the peptide text is derived from it. Where no end group is shown, it is not given here. [ ]: non-standard residue; d: D form. The star is where a group is joined. d2Nal = N[C@H](Cc1ccc2ccccc2c1)C(=O)O; Octanoyl = CCCCCCCC(=O)*

What was measured:
SOD1^G93A mice [1] = test: Repeated subcutaneous GHRP-6 or anamorelin from the age of 10 weeks: body weight, food intake, survival (Example 9); assay type: in vivo, mouse; details: mean ± SE; for Survival period: 1 mg/kg subcutaneously twice a day from age 10 weeks until death; for Amount of change in body weight / Food intake: 1 mg/kg subcutaneously twice a day from age 10 weeks, after 5-weeks of administration
Method: In the experiment, 10-week-old SOD1^G93A mice were used, which were divided into 3 groups: a vehicle group, a GHRP-6 group, and an anamorelin group. GHRP-6 (1 mg/kg), anamorelin (1 mg/kg), or a vehicle (5% mannitol solution) was subcutaneously administered thereto twice a day from the age of 10 weeks until death. Their body weight and feed weight were measured before the start of administration and after 5-weeks of administration to calculate the amount of change in body weight and food intake. The survival period of each individual was also analyzed.

[2] = tested on: rat adrenal pheochromocytoma-derived PC-12 cells; details: cited from earlier work
SOD1^G93A mice [3] = test: Motor neuron protective effect of continuous subcutaneous human ghrelin, Nissl-stained T9 spinal cord sections (Example 4); assay type: in vivo, mouse; details: relative to WT control group = 100%; 50 μg/day continuous subcutaneous, 7 weeks after start, T9 anterior horn; mean ± SE
Method: In the experiment, 10-week-old SOD1^G93A and WT mice were used. […] Vehicle-administered WT mice were used as a control group. Human ghrelin (50 μg/day, approximately 2 mg/kg/day) was dissolved in a vehicle (saline solution) to prepare a dosing solution. An osmotic pump (ALZET® MINI-OSMOTIC PUMP MODEL 1004, DURECT Corporation) filled with the dosing solution or a saline solution was subcutaneously implanted into the back of each mouse for continuous subcutaneous administration. The administration was started from the age of 10 weeks and continued after replacement of the osmotic pump with a fresh one 4 weeks later. Seven weeks after the start of administration, the mice were anatomized, and the T9 regions of their spinal cords were extracted. Nissl-stained sections were prepared, and the number of motor neurons was histologically identified. Three non-adjacent sections were used per individual to measure the number of motor neurons present in the anterior horn. The measurement value of each group was calculated as a relative value when the average number of motor neurons in the control group was defined as 100%.

MuRF1 mRNA = MuRF1 mRNA expression in gastrocnemial muscle by quantitative PCR under restricted feeding (Example 6); assay type: in vivo, mouse; details: relative to WT-control group = 100%, 7 weeks after start
Method: (§1) In the experiment, 10-week-old SOD1^G93A and WT mice were used. The WT mice were divided into 2 group, one of which was raised under voluntary intake conditions (WT-control group) and the other of which was given 2.8 to 2.9 g/day which corresponded to approximately 90% of the daily food intake under voluntary intake conditions of the SOD1^G93A mice (WT-restricted feeding group).
(§2) Human ghrelin (50 μg/day, approximately 2 mg/kg/day) was dissolved in a vehicle (saline solution) to prepare a dosing solution. An osmotic pump (ALZET® MINI-OSMOTIC PUMP MODEL 1004, DURECT Corporation) filled with the dosing solution or a saline solution was subcutaneously implanted into the back of each mouse for continuous subcutaneous administration. The administration was started from the age of 10 weeks, and the osmotic pump was replaced with a fresh one 4 weeks later.
(§3) The gastrocnemial muscles were isolated, and after mRNA extraction, the Atrogin-1 and MuRF1 mRNA expression levels were measured by quantitative PCR. The measurement value of each group was calculated as a relative value when the average mRNA expression level in the WT-control group was defined as 100%.

SOD1^G93A mice [4] = test: Repeated subcutaneous human ghrelin from the age of 10 weeks: body weight, food intake, muscle strength, survival (Example 5); assay type: in vivo, mouse
Method: In the experiment, 10-week-old SOD1^G93A mice were used, which were divided into 2 groups: a vehicle group and a human ghrelin group. Human ghrelin (1 mg/kg) or a vehicle (5% mannitol solution) was subcutaneously administered thereto twice a day from the age of 10 weeks until death. Their body weights and feed weights were measured before the start of administration and after 8-weeks of administration to calculate the amount of change in body weights and the food intakes. The forelimb muscle strengths were measured using a rat/mouse simple sthenometer; 200 g scale (O'HARA & CO., LTD.) before the start of administration and after 8-weeks of administration. The survival period of each individual was also analyzed.

Atrogin-1 mRNA = Atrogin-1 mRNA expression in gastrocnemial muscle by quantitative PCR under restricted feeding (Example 6); assay type: in vivo, mouse; details: relative to WT-control group = 100%, 7 weeks after start
Method: as §1, §2, §3

SOD1^G93A mice [5] = test: Continuous subcutaneous human ghrelin under restricted feeding: body weight, skeletal muscle, motor neurons, muscle strength (Example 6); assay type: in vivo, mouse; details: 50 μg/day continuous subcutaneous
Excerpt: In this Example, SOD1^G93A mice were raised under restricted feeding by which the daily food intake of the SOD1^G93A mice under voluntary intake conditions was set to approximately 90%. […] The administered ghrelin was examined for its effects on body weight, skeletal muscle mass, muscle strength, the number of motor neurons, and mRNA expression of Atrogin-1 and Muscle RING-finger protein-1 (MuRF1), which are both involved in skeletal muscle wasting.
as §1, §2
Their body weights were measured at the start day of administration and after 6 weeks to calculate the amount of change in body weight.
The forelimb muscle strength was measured using a rat/mouse simple sthenometer; 200 g scale (O'HARA & CO., LTD.) 7 weeks after the start of administration.
The lower-body skeletal muscle masses of the mice were measured using X-ray CT (Latheta LCT-200, Hitachi Aloka Medical, Ltd.) before the start of administration (at the age of 10 weeks) and after 7 weeks to determine the amount of change in skeletal muscle mass.
Then, the mice were anatomized, and the T9 regions of their spinal cords were extracted. Nissl-stained sections were prepared, and the number of motor neurons was histologically identified. Three non-adjacent sections were used per individual to measure the number of motor neurons present in the anterior horn. The measurement value of each group was calculated as a relative value when the average number of motor neurons in the WT-control group was defined as 100%.

SOD1^G93A mice [6] = test: Continuous subcutaneous human ghrelin from the age of 10 weeks: body weight, food intake, skeletal muscle mass, cholesterol, muscle strength, survival (Example 3); assay type: in vivo, mouse
Method: In some Examples, the WT mice were also used.
as §2, with “In the experiment, 10-week-old SOD1^G93A mice were used, which were divided into 2 groups: a vehicle group and a human ghrelin group. Human” for “Human”, “weeks” for “weeks,”, “and continued to the live individuals with” for “and”, “pump” for “pump was”, “one every” for “one”, “weeks.” for “weeks later.”
Their body weight and feed weight was measured before the start of administration and after 8-weeks of administration to calculate the amount of change in body weight and the food intake. After 8-weeks of administration, the lower-body skeletal muscle masses of the mice were measured using X-ray CT (Latheta LCT-200, Hitachi Aloka Medical, Ltd.). The plasma total cholesterol concentrations were measured with Cholesterol E—Test Wako (Wako Pure Chemical Industries, Ltd.) using plasma separated from blood collected from the tail vein after 8-weeks of administration. The forelimb muscle strengths were measured using a rat/mouse simple sthenometer; 200 g scale (O'HARA & CO., LTD.) on the 16th week of age. The survival period of each individual was also analyzed.

SOD1^G93A mice [7] = test: Survival period with continuous subcutaneous human ghrelin from the age of 16 weeks (Example 8); assay type: in vivo, mouse; details: 50 μg/day continuous subcutaneous from age 16 weeks
Method: as §2, with “In the experiment, 16-week-old SOD1^G93A mice were used, which were divided into 2 groups: a vehicle group and a human ghrelin group. Human” for “Human”, “16 weeks” for “10 weeks,”, “and continued to the live individuals with” for “and”, “pump” for “pump was”, “one every” for “one”, “weeks. The survival period of each individual was analyzed.” for “weeks later.”

[8] = 1 mg/kg subcutaneously twice a day from age 10 weeks, after 8-weeks of administration, mean ± SE
[9] = 50 μg/day continuous subcutaneous from age 10 weeks, after 8-weeks of administration, mean ± SE

CN(C)N(C)C(=O)[C@@]1(Cc2ccccc2)CCCN(C(=O)[C@@H](Cc2c[nH]c3ccccc23)NC(=O)C(C)(C)N)C1 [Anamorelin, 2-Amino-N-{(1R)-2-[3-benzyl-3-(N,N′,N′-trimethylhydrazinocarbonyl)piperidin-1-yl]-1-((1H-indol-3-yl)-2-oxoethyl)-2-methylpropionamide}]
Survival period (SOD1^G93A mice [1]): 136 ± 2 (31) day
Amount of change in body weight (SOD1^G93A mice [1]): 0.9 ± 0.2 (31) g
Food intake (SOD1^G93A mice [1]): 139.5 ± 2.5 (31) g

C[C@H](NC(=O)[C@@H](Cc1c[nH]c2ccccc12)NC(=O)[C@@H](N)Cc1c[nH]cn1)C(=O)N[C@@H](Cc1c[nH]c2ccccc12)C(=O)N[C@H](Cc1ccccc1)C(=O)N[C@@H](CCCCN)C(N)=O [GHRP-6, L-Histidyl-D-tryptophyl-L-alanyl-L-tryptophyl-D-phenylalanyl-L-lysinamide] (H-H[dW]AW[dF]K-NH2)
Survival period (SOD1^G93A mice [1]): 138 ± 2 (30) day
Amount of change in body weight (SOD1^G93A mice [1]): 1.9 ± 0.2 (30) g
Food intake (SOD1^G93A mice [1]): 142.7 ± 2.1 (30) g

C[C@H](NC(=O)[C@@H](Cc1ccc2ccccc2c1)NC(=O)[C@@H](C)N)C(=O)N[C@@H](Cc1c[nH]c2ccccc12)C(=O)N[C@H](Cc1ccccc1)C(=O)N[C@@H](CCCCN)C(N)=O [Pralmorelin, D-Alanyl-D-(2-naphthyl)alanyl-L-alanyl-L-tryptophyl-D-phenylalanyl-L-lysinamide] (H-[dA][d2Nal]AW[dF]K-NH2)
Increase of the proportion of PC-12 cells having dendrites and axons 1.5 times larger than the size of the cells, compared with a control group [2]: approximately 1.2 times

Human ghrelin: peptide of 28 amino acids (SEQ ID NO: 1), hydroxy group of the 3rd residue (serine) acylated with n-octanoyl group; endogenous GHS-R ligand (GSS(Octanoyl)FLSPEHQRVQQRKESKKPPAKLQPR; listed as Homo sapiens)
The number of motor neurons (SOD1^G93A mice [3]): 84 ± 7 (7)*^,## %
MuRF1 mRNA expression level (MuRF1 mRNA): 207 ± 36 %
Survival period longer on average than the survival days of the vehicle group (SOD1^G93A mice [4]; 1 mg/kg subcutaneously twice a day from age 10 weeks): 21.8%
Survival period (SOD1^G93A mice [4]; 1 mg/kg subcutaneously twice a day from age 10 weeks until death, mean ± SE): 179 ± 8 (13) day
Amount of change in body weight (SOD1^G93A mice [4]; [8]): 2.1 ± 0.4 (13) g
Food intake (SOD1^G93A mice [4]; [8]): 176.2 ± 3.5 (13) g
Change in forelimb muscle strength (SOD1^G93A mice [4]; 1 mg/kg subcutaneously twice a day, from age 10 weeks to after 8-weeks of administration, mean ± SE): −0.08 ± 0.07 (13) N
Atrogin 1 mRNA expression level (Atrogin-1 mRNA): 205 ± 34 %
The number of motor neurons (SOD1^G93A mice [5]; relative to WT-control group = 100%, restricted feeding, T9 anterior horn): 66 ± 5 %
Amount of change in body weight (SOD1^G93A mice [5]; restricted feeding 2.8 to 2.9 g/day, 6 weeks after start): −1.4 ± 0.7**^,## g
Forelimb muscle strength (SOD1^G93A mice [5]; restricted feeding, 7 weeks after start): 0.77 ± 0.06 N
Amount of change in lower-body skeletal muscle (SOD1^G93A mice [5]; restricted feeding, 7 weeks after start, X-ray CT): −0.9 ± 0.2**^,# g
Survival period longer on average than the survival days of the vehicle group (SOD1^G93A mice [6]; 50 μg/day continuous subcutaneous from age 10 weeks): 13.8%
Amount of change in body weight (SOD1^G93A mice [6]; [9]): 2.6 ± 0.4 (15) g
Food intake (SOD1^G93A mice [6]; [9]): 188.2 ± 3.6 (15) g
Survival period (SOD1^G93A mice [6]; 50 μg/day continuous subcutaneous from age 10 weeks, mean ± SE): 173 ± 4 (15) day
Forelimb muscle strength (SOD1^G93A mice [6]; 50 μg/day continuous subcutaneous, after 6-weeks of administration (16th week of age), mean ± SE): 0.96 ± 0.05 (15) N
Lower-body skeletal muscle mass (SOD1^G93A mice [6]; 50 μg/day continuous subcutaneous, after 8-weeks of administration, X-ray CT, mean ± SE): 5.7 ± 0.3 (15) g
Plasma total cholesterol concentration (SOD1^G93A mice [6]; 50 μg/day continuous subcutaneous, after 8-weeks of administration, mean ± SE): 85.8 ± 4.0 (15) mg/dL
Survival period longer on average than the survival days of the vehicle group (SOD1^G93A mice [7]): 17.6%
Survival period (SOD1^G93A mice [7]; mean ± SE): 180 ± 11 (9) day
